Results as given in ChEMBL document CHEMBL1152150, “Interaction of ladder-shaped polyethers with transmembrane alpha-helix of glycophorin A as evidenced by saturation transfer difference NMR and surface plasmon resonance” (Bioorg Med Chem Lett, 2008).
The source made the active and inactive calls. The rule behind the calls is not given here.

Experiments:
Glycophorin-A [1] = biological target: T1, Glycophorin-A (Homo sapiens, UniProt P02724); assay: Binding affinity to transmembrane alpha-helix of glycophorin A by surface plasmon resonance method
[2] = Binding affinity to transmembrane alpha-helix of glycophorin A 2G/2I mutant by surface plasmon resonance method
Glycophorin-A [3] = biological target: T1, Glycophorin-A; assay: Binding affinity to transmembrane alpha-helix of glycophorin A by saturation transfer difference NMR

T1 sequence (P02724 whole entry): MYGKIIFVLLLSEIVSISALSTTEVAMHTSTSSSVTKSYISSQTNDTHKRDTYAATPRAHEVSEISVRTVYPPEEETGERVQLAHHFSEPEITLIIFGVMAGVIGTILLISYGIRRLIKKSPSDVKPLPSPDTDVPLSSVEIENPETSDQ

Row | Compound | Kd (Glycophorin-A [1]) | Kd [2] | Activity (Glycophorin-A [3])
1 | C[C@@]12CC[C@@H]3O[C@H](CO)[C@@H](O)C[C@H]3O[C@H]1C[C@H]1O[C@@H](COCc3ccccc3)[C@H](OCc3ccccc3)C[C@@H]1O2 | 240 µM | 150 µM | –
2 | C=CCC(=C)/C=C/[C@@](C)(O)[C@H]1O[C@@H]2C[C@@H]3O[C@@H]4C[C@@H]5O[C@@H]6C[C@@H]7O[C@@H]8C[C@@H]9O[C@@H]%10C[C@@H]%11O[C@](C)(CCOS(=O)(=O)O)[C@@H](OS(=O)(=O)O)C[C@H]%11O[C@H]%10C[C@H]9O[C@H]8CC[C@@]7(C)O[C@@]6(C)CC[C@H](C)[C@H]5O[C@H]4C[C@@]3(C)O[C@H]2CC1=C [YESSOTOXIN] | 120 µM | 85 µM | Active
3 | C[C@@]12CC[C@@H]3O[C@@H]4C[C@@H]5O[C@@H]6C[C@H](O)[C@@H](CO)O[C@H]6CC[C@@]5(C)O[C@H]4C[C@H]3O[C@H]1C[C@H]1O[C@@H](CCOCc3ccccc3)[C@H](OCc3ccccc3)C[C@@H]1O2 | 48 µM | 7.7 µM | –
4 | OC[C@H]1O[C@@H](COCc2ccccc2)[C@H](OCc2ccccc2)C[C@@H]1O | 2400 µM | 860 µM | –
5 | C=CCC(=C)/C=C/[C@@](C)(O)[C@H]1O[C@@H]2C[C@@H]3O[C@@H]4C[C@@H]5O[C@@H]6C[C@@H]7O[C@@H]8C[C@@H]9O[C@@H]%10C[C@@H]%11O[C@](C)(CCO)[C@@H](O)C[C@H]%11O[C@H]%10C[C@H]9O[C@H]8CC[C@@]7(C)O[C@@]6(C)CC[C@H](C)[C@H]5O[C@H]4C[C@@]3(C)O[C@H]2CC1=C [DESULFATED YESSOTOXIN] | 270 µM | 99 µM | –
